Results reported in US7189518B2, “Soluble CD40L(CD154) as a prognostic marker of atherosclerotic diseases” (The Brigham and Women's Hospital, Inc., priority 2001, dated 2007).

Legend:
Assay type in all cases: cell-based
[1] = system: human vascular EC, SMC, and MØ; experiment: Western blot of CD40 and CD40L protein expression in cultured human vascular cells; settings: for Concentration required to reduce CD40/CD40L expression: higher than for cerivastatin
Experimental: Viability of the cultures was determined by trypan blue (Sigma, St. Louis, Mo.) exclusion count as well as an oligonucleosome formation assay (Cell Death Detection ELISA, Boehringer Mannheim, Germany).
Culture lysates (50 μg total protein/lane) and supernatants were separated by SDS-PAGE and blotted to polyvinylidene difluoride membranes (Bio-Rad, Hercules, Calif.) using a semi-dry blotting apparatus (3 mA/cm^2, 30 min; Bio-Rad, Hercules, Calif.). Blots were blocked and primary (mouse-anti-human CD40 or CD40L; both 1:1,000; PharMingen, San Diego, Calif.) antibodies were added in 5% defatted dry milk/PBS/0.1% Tween 20. After 1 h, blots were washed three times (PBS/0.1% Tween 20) and secondary, peroxidase-conjugated, goat-anti-mouse antibody (Jackson Immunoresearch, West Grove, Pa.) was added (1 h). Finally, blots were washed and immunoreactive proteins were visualized using the Western blot chemiluminescence system (NEN™, Boston, Mass.). Data were verified by employing anti-CD40/-CD40L antibodies from Santa Cruz (Santa Cruz, Calif.).

[2] = system: human vascular EC, as well as MØ; experiment: Flow cytometry of CD40 and CD40L cell surface expression
Experimental: (§1) Human vascular EC and SMC were isolated from saphenous veins and cultured as described previously.^4,26 Mononuclear phagocytes (MØ) were isolated from leukocyte concentrates by density gradient centrifugation employing Lymphocyte Separation Medium (Organon-Teknika, Durham, N.C.) and were cultured (10 days) in RPMI 1640 (BioWhittaker, Walkersville, Md.) containing 2% human serum (Sigma; St. Louis, Mo.).^26 All cell types were cultured 24 h before and during the experiment in media lacking serum. Viability of the cultures was determined by trypan blue (Sigma, St. Louis, Mo.) exclusion count as well as an oligonucleosome formation assay (Cell Death Detection ELISA, Boehringer Mannheim, Germany).
Human vascular EC, SMC, or MØ were washed with ice-cold PBS, harvested by trypsinization, and fixed (PBS/4% paraformaldehyde, 15 min). Subsequently, the cells were washed once with PBS/2% BSA before being incubated (1 h, 4° C.) with either buffer alone or FITC-conjugated control IgG, mouse-anti-human CD40, or mouse-anti-human CD40L antibody (1 μg/ml; PharMingen, San Diego, Calif.). Finally, cells were washed with PBS/2% BSA and analyzed in a Becton Dickinson FACSCAN® flow cytometer employing […]® software (Becton Dickinson; San Jose, Calif.). At least 20,000 viable cells per condition were analyzed.

human vascular EC and MØ = experiment: RT-PCR of CD40 and CD40L mRNA expression in cultured human vascular cells
Experimental: as §1
Total RNA isolated from cultured EC, SMC, or MØ employing RNAzol (Tel-Test; Friendswood, Tex.) was assessed for purity and yield spectrophotometrically (2100 Bioanalyzer, Agilent Technologies, Wilmington, Del.) and was reverse-transcribed (2 μg total RNA; 50 min, 42° C.) employing Superscript II Reverse Transcriptase (LifeTechnologies, Carlsbad, Calif.). PCR was performed for 35 cycles at 95° C. (120 sec), 62° C. (120 sec), and 72° C. […] PCR products were analyzed on ethidium bromide-containing 1.3% agarose gels and visualized by UV transillumination. […]

In the case of `COCc1c(C(C)C)nc(C(C)C)c(/C=C/[C@@H](O)C[C@@H](O)CC(=O)O)c1-c1ccc(F)cc1` [cerivastatin], the “Concentration at which the constitutive as well as IL-1β/TNFα/IFNγ-induced expression of the receptor (CD40) was diminished” value ([1]; EC, Western blot) is reported as over 2 nM and the “Concentration for maximal inhibition of CD40 expression” value ([1]; EC, Western blot) is reported as 10 to 50 nM.
`CC(C)c1c(C(=O)Nc2ccccc2)c(-c2ccccc2)c(-c2ccc(F)cc2)n1CC[C@@H](O)C[C@@H](O)CC(=O)O` [atorvastatin] was tested, and the “Concentration required to reduce CD40/CD40L expression” value ([1]; Western blot) was 100 nM, the “Constitutive as well as cytokine-induced expression of CD40 and CD40L protein and transcript” value ([1]; human vascular EC, SMC, and MØ, summary in the discussion, also covers RT-PCR) was “significantly diminished” and the “Order of the statins by concentration needed for equal reduction in CD40/CD40L expression” value [2] was “cerivastatin>simvastatin=atorvastatin”.
With `CC(O)(CCO)CC(=O)O` (centres unmarked) [Mevalonate] the “Effect on the expression of CD40 and CD40L diminished by statins” value ([1]; protein, Western blot) was “reversed” and the “Effect on the expression of CD40 and CD40L transcripts diminished by statins” value (human vascular EC and MØ) was “reversed”.
For `CCC(C)(C)C(=O)O[C@H]1C[C@@H](C)C=C2C=C[C@H](C)[C@H](CC[C@@H]3C[C@@H](O)CC(=O)O3)[C@H]21` [simvastatin], the “Concentration required to reduce CD40/CD40L expression” value ([1]; Western blot) was 100 nM.
